{"source": "patent EP0012271A1", "about": "“Prednisone derivatives, process for their production and pharmaceutical preparations containing these compounds” (SCHERING AKTIENGESELLSCHAFT, priority 1978, dated 1980)", "key": {"Pfotenödems": {"tested_on": "Pfotenödems", "assay": "Undesired systemic activity: Mycobacterium butyricum-induced paw oedema in rats, oral administration", "assay_type": "in vivo, SPF-Ratten", "settings": "Rattus norvegicus, dose giving 50% reduction of paw oedema volume, measured 24 h after dosing, higher value = less undesired systemic effect, read-out: Systemische Wirksamkeit ED50", "source_text": "(§1) Die Prednison-Derivate der allgemeinen Formel I gemäß Anspruch 1 zeichnen sich gegenüber dem in handelsüblichen pharmazeutischen Präparate befindlichen, strukturanalogen Kortikoid 17α-Butyryloxy-21-chlor-9α-fluor-16β-methyl- l,4-pregnadien-3,11,20-trion durch eine günstigere Dissoziation zwischen erwünschter topischer antiinflammatorischer Wirksamkeit und unerwünschter systemischer Nebenwirkung aus, wie folgende pharmakologische Untersuchungen zeigen: • a) Ermittlung der topischen antiinflammatorischen Wirksamkeit: Die Untersuchungen werden an je 8 gesunden Probanden beider Geschlechter durchgeführt, die in den letzten zwei Wochen keine lokale Corticosteroidbehandlung erhalten hatten. Nach dem Entfernen des Stratum corneum bis zum Stratum lucidum auf dem Rücken der Probanden (20 - 40 Tesafilm-Abrisse) werden je o,l g der Zubereitung auf 4 cm^2 große Felder ohne Okklusionsverband aufgetragen. Um zu vermeiden, daß die gleiche Zubereitung jeweils auf identische Hautreale appliziert wird, wird in rotierender Folge aufgetragen. […]"}, "Vasokonstriktion": {"tested_on": "Vasokonstriktion", "assay": "Topical anti-inflammatory activity: vasoconstriction test on tape-stripped back skin of healthy volunteers, visual grading 1-5 compared with DFV", "assay_type": "in vivo, gesunden Probanden", "settings": "Konz. der Salbe, mean of 8 volunteers, positive = better than DFV, negative = worse", "source_text": "as §1"}}, "data": [{"smiles": "CCCC(=O)O[C@]1(C(=O)CCl)CC[C@H]2[C@@H]3CCC4=CC(=O)C=C[C@]4(C)[C@@]3(F)C(=O)C[C@@]21C", "note": "[Nr. 3, 17α-Butyryloxy-21-chlor-9α-fluor-1,4-pregnadien-3,11,20-trion]", "values": [{"measurement": "ED50", "setting": "Pfotenödems", "value": 30, "unit": "mg/kg"}, {"measurement": "Topische Wirksamkeit, Wirkungsgrad DFV - Wirkungsgrad Substanz", "setting": "Vasokonstriktion; Beobachtungszeit 4 h", "value": "-0,1"}, {"measurement": "Topische Wirksamkeit, Wirkungsgrad DFV - Wirkungsgrad Substanz", "setting": "Vasokonstriktion; Beobachtungszeit 8 h", "value": "0,0"}]}]}
